{"source": "PubChem BioAssay (NCI)", "tested_on": "SN12K1 renal", "test": "DTP human tumour cell line panel, 48 h", "note": "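Results reflect a 48-hour exposure of cells in 96-well plates to compound at five concentrations. At the GI50, growth is halved.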"}
{"molecule": "Cc1c[nH]c2c1C13CC1CN(C(=O)c1cc4cc(NC(=O)c5cc6ccccc6o5)ccc4[nH]1)C3=CC2=O", "note": "(stereo unspecified)", "values": [{"measurement": "GI50", "value": "> 1.17", "unit": "ng/mL"}]}
